Data on eight compounds can be found in US20200033346A1, “DIAGNOSTIC AND THERAPEUTIC METHODS FOR KRAS POSITIVE CANCERS” (The Board of Trustees of the Leland Stanford Junior …, priority 2017, published 2020).

In one test the target is FASN (Homo sapiens, UniProt P49327). The note with it: background description; cited from earlier work.
In the next test the test system is H1299. Nature of the test: Cell proliferation upon FASN inhibition (PI assay, hemocytometer cell counting), H1299. The class given is cell-based, human. The conditions noted are these: cerulenin 1-10 μg/mL, FIG. 6B. The source says:
(§1) Cell culture. The human non-small cell lung carcinoma cell lines, A549 and H1299, were used for in vitro experiments. A549 cells were maintained in Dulbecco's Modified Eagle Medium (DMEM) supplemented with 10% fetal bovine serum (FBS), 1% L-glutamine, 1% sodium pyruvate, 1% nonessential amino acids, and Antibiotic-Antimycotic. […] Trypsin-EDTA was used to passage both A549 and H1299 cells. All cell culture reagents were purchased from Gibco® (Thermo Fisher Scientific Inc.).
(§2) Small molecule inhibitors. […] FTS is a synthetic famesylcysteine mimetic which interferes with the anchoring of KRAS to the plasma membrane. […] Various levels of these drugs were administered to cells in culture over a time course in order to assess dose-response relationships.
(§3) Cell counting. A volume of cells was removed from culture medium and mixed with an equal volume of 0.4% Trypan blue stain. Then 10 μL was taken out and placed into a hemocytometer for cell counting. Viable cell counts were used as a measure of cell proliferation.

The subject of another test is A549. Nature of the test: Cell proliferation upon FASN inhibition (PI assay, hemocytometer cell counting), A549. The class given is cell-based, human. The conditions noted are these: cerulenin 1-10 μg/mL, FIG. 6A.
From the text: as §1, §2, §3

A further test relates to BCL2-induced lymphoma. Nature of the test: Tumor growth in mice with BCL2-induced lymphoma. The class given is in vivo, mouse. The conditions noted are these: RAS inactivation by FTS together with BCL2 inactivation by DOX; FIG. 21. An excerpt: Inactivation of both BCL2 and Ras inhibits tumor growth more effectively than either oncogene alone: mice with BCL2-induced lymphoma. Plots of tumor area over time in mice cohorts: untreated (UnTx), with BCL2 inactivated (BCL2 off), Ras inactivated (Ras off, or both BCL2 and Ras inactivated (BCL2off,Ras off).

For test [1], the system named is FASN and SCD gene expression. Nature of the test: Real-time PCR of FASN and SCD mRNA in human lung cancer cell lines after inhibitor treatment. It counts as cell-based. The note with it: qPCR. As for the experimental part: Cell culture. The human non-small cell lung carcinoma cell lines, A549 and H1299, were used for in vitro experiments. A549 cells were maintained in Dulbecco's Modified Eagle Medium (DMEM) supplemented with 10% fetal bovine serum (FBS), 1% L-glutamine, 1% sodium pyruvate, 1% nonessential amino acids, and Antibiotic-Antimycotic. H1299 cells were maintained in RPMI 1640 medium supplemented with 10% FBS, 50 μM β-mercaptoethanol, and Antibiotic-Antimycotic. Trypsin-EDTA was used to passage both A549 and H1299 cells. All cell culture reagents were purchased from Gibco® (Thermo Fisher Scientific Inc.). Small molecule inhibitors. […] FTS is a synthetic famesylcysteine mimetic which interferes with the anchoring of KRAS to the plasma membrane. […] Various levels of these drugs were administered to cells in culture over a time course in order to assess dose-response relationships. RNA extraction and cDNA synthesis. Total RNA was isolated from cells and lung tissue using the QIAGEN RNeasy Mini kit. RNA quality and concentration were assessed by the NanoDrop® spectrophotometer. The RNA was reverse transcribed into cDNA using the SuperScript® III First-Strand Synthesis System (Invitrogen). […] Amplicons were detected by using SYBR® Green I dye as fluorophore. […] For each gene, a threshold cycle (Ct) number, which represents the number of cycles required to reach the threshold fluorescence, was determined. […]
A general note: In qPCR the cycle at which signal appears reflects the starting amount.

In another test the test system is ERK1/2 phospho-isoforms. Nature of the test: NIA analysis of ERK isoforms in tumor FNAs of mice with MYC-induced lymphoma. The class given is in vivo, mouse. The note with it: FIG. 18. As for the experimental part: (§4) Nanoimmunoassay (NIA). NIA was performed using the Nanopro 1000 (Protein Simple) to detect the phosphorylation states of ERK1 and ERK2 in lysates generated from lung tumor tissue. NIA is a highly sensitive capillary-based isoelectric focusing method that uses antibody detection to quantify protein isoforms as well as characterize post-translational protein modifications such as phosphorylation. The final protein concentration loaded into each capillary of the Nanopro 1000 was 0.1 μg/μL. The primary rabbit antibody for ERK1/2 (Millipore) was diluted 1:300 and the primary mouse antibody for the loading control, Hsp70 (Santa Cruz Biosciences), was diluted 1:500. The anti-mouse and anti-rabbit secondary antibodies, conjugated to horse radish peroxidase, were diluted 1:100. Chemiluminescence signal was recorded following the addition of luminol and peroxide detection reagents. Analysis of NIA data was performed in Compass software (Protein Simple).
Mice with MYC-induced lymphoma were treated with FTS. Tumors from mouse untreated or after 4 days of treatment were sampled by fine needle aspirate. FNAs were flash frozen and batch analyzed. NIA was used to analyze ERK isoforms using NIA.

The test system of another test is ERK1/2 phosphorylation. Nature of the test: NIA analysis of ERK isoforms in FNAs from transgenic lymphoma. It counts as in vivo, mouse. The conditions noted are these: Day 4 of FTS treatment, FIG. 22. The procedure:
as §4
Tumors were sampled by fine needle aspirate prior to treatment (UnTx), and […] after 1-8 days of treatment with FTS.
Comparison with dox is shown. Mice were either treated with FTS (BC2FTS) or BCL2 inactivation (BCL2Dox). Tumors were sampled by fine needle aspirate prior to treatment (UnTx), and […] after 1-8 days of treatment with FTS.

The subject of the next test is Erk pathway. Nature of the test: NIA of ERK isoforms in head and neck squamous cell carcinoma before and after rigosertib. It counts as in vivo, human. The note with it: one head and neck cancer patient; pre- vs post-treatment; FIG. 32. As for the experimental part:
Patients receive 2 cycles of 2 weeks of treatment with 1 week off regimen. For Cycle 1, Day 14 only, 5 patients with HNSCC will undergo biopsy or FNA for nano-proteomic profiling of total- and phospho-proteins in pathways inhibited by rigosertib, ERK and loading control. For Cycle 1 Day 14 and Cycle 2 Day 14, pharmacokinetic blood analyses are performed. […] A patient with head and neck cancer treated on clinical trial of rigosertib had tumor sampled before (pre-treatment) and after (post-treatment) treatment. NIA was used to measure ERK isforms.

Another test has as its system MEK1 phospho-isoforms. Nature of the test: NIA of MEK isoforms in NHL patients before and after atorvastatin. The class given is in vivo, human. The procedure:
Nine patients were treated on clinical trial of HMG co-A reductase inhibitor atorvastatin. NIA was used to measure changes in MEK isoforms before (day 1) and after eight days of treatment.
Nine patients were treated on clinical trial of HMG co-A reductase inhibitor atorvastatin. NIA was used to measure changes in MEK isoforms before (day 1) and after 8 days of treatment.

In the next test the test system is tumor burden. Nature of the test: Tumor burden in patients on clinical trial of atorvastatin. The class given is in vivo, human. The note with it: eight days of treatment.

Sequence of FASN (P49327 whole entry, species assumed): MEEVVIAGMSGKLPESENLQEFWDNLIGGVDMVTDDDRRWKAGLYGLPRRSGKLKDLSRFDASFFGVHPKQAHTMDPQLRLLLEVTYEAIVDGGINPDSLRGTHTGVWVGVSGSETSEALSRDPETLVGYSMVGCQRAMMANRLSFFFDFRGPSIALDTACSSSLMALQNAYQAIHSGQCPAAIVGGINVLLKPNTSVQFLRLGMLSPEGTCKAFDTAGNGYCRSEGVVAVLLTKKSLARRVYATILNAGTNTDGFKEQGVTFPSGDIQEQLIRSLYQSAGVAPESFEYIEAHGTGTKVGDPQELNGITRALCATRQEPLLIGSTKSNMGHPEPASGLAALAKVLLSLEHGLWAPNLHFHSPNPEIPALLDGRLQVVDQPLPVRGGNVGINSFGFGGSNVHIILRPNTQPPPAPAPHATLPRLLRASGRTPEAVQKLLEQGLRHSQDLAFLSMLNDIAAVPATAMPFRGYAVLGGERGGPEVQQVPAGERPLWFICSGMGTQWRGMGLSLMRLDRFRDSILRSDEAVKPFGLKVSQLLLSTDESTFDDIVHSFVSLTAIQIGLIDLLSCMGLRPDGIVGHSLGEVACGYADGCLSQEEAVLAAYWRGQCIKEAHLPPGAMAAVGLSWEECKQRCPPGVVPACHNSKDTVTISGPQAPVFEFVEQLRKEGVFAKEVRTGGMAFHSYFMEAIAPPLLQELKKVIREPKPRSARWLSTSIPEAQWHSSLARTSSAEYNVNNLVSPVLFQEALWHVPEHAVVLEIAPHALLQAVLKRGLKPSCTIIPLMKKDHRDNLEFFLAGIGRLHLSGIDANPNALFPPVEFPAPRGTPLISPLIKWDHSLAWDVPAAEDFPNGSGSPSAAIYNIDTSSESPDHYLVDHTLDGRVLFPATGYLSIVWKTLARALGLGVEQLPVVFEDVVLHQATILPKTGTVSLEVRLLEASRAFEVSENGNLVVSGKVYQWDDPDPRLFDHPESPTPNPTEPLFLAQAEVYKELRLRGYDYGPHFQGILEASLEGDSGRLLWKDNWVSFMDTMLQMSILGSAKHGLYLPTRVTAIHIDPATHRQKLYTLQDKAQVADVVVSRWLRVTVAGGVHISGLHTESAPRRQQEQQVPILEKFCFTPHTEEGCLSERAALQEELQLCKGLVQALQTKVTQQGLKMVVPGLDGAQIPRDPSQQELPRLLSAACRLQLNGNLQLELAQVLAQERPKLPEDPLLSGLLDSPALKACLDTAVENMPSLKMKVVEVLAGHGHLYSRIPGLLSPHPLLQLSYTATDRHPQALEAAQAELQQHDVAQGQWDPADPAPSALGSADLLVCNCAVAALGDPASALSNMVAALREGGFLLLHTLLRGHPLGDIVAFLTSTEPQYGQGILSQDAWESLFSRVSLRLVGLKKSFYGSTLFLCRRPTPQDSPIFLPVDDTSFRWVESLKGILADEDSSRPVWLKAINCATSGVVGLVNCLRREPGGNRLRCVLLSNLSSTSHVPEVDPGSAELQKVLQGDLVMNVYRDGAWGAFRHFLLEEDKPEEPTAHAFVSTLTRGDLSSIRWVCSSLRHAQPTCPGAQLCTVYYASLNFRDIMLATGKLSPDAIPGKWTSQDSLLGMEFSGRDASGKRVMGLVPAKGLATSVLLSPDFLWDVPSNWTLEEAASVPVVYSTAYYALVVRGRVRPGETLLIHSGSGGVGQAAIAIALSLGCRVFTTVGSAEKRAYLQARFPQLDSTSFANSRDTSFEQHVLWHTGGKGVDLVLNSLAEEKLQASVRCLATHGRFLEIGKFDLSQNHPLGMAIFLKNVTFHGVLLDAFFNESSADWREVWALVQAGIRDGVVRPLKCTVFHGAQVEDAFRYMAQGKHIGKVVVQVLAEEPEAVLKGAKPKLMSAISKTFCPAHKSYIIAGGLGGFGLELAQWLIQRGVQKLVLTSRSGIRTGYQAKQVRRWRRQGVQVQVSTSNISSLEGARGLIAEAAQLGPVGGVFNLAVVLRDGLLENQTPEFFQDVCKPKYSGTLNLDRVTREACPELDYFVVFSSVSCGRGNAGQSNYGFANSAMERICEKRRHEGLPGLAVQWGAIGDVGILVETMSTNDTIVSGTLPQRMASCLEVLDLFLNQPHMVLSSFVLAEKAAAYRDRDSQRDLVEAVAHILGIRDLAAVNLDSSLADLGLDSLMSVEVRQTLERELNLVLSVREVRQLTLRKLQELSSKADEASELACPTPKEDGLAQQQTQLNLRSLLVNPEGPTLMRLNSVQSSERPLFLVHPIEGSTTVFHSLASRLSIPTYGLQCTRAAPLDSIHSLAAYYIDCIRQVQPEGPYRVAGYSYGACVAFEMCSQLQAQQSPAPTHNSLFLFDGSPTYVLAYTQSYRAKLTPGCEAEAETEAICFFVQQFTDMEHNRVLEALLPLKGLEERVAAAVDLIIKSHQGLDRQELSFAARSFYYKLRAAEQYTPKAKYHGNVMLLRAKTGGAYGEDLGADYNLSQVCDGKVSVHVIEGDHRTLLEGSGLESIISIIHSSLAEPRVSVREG

Turning to `C=C1C(=O)OC(CCCCCCCC)C1C(=O)O` (centres unmarked) [C75], the FASN inhibitory potency result on FASN is recorded as “weak, irreversible inhibitor”.

As to `C/C=C/C/C=C/CCC(=O)[C@H]1O[C@H]1C(N)=O` [Cerulenin], the Cell proliferation result in the test with H1299 and with A549 was “decreased proliferation” throughout.

In the case of `CC(C)=CCC/C(C)=C/CC/C(C)=C/CSc1ccccc1C(=O)O` [FTS, S-trans,trans-farnesylthiosalicylic acid], in the test with BCL2-induced lymphoma, the Tumor growth inhibition entry is reported as “inhibits tumor growth more effectively than inactivating either oncogene alone”. In addition, the “Gene expression of FASN and SCD upon KRAS inhibition” value in [1] (human lung cancer cell line, FTS at 5-20 ng/mL, FIG. 5B) is “decreased the gene expression of FASN and SCD in a dose-dependent manner”. Moreover, in the test on ERK1/2 phospho-isoforms (FNA after 4 days of treatment), the “Total ERK1/2 level” value was “did not change”. For the same compound, the Phospho-ERK isoforms result with ERK1/2 phospho-isoforms (FNA on day 4 of treatment) is on record as “all phospho-ERK isoforms decreased”. Moreover, the “Decrease of ERK1/2 phosphorylation” value in the test on ERK1/2 phosphorylation came out at 35%.

`Cc1ccnc(NS(=O)(=O)c2ccc(NC(=O)Nc3ccc(S(=O)(=O)Nc4nccc(C)n4)cc3)cc2)n1` [GSK837149A]: the FASN inhibitory potency result on FASN is reported as “low, nanomolar”.

In the case of `COc1cc(OC)c(/C=C/S(=O)(=O)Cc2ccc(OC)c(NCC(=O)O)c2)c(OC)c1` [Rigosertib], the “Erk pathway activity (ERK isoforms by NIA)” value in the test with Erk pathway is given as “decreases Erk pathway”.

Take `O=C(Nc1ccc2[nH]nc(-c3ccncc3)c2c1)[C@@H]1CCN(CC(=O)N2CCN(c3ccc(-c4ncccn4)cc3)CC2)C1` [SCH772984]: the “Relative mRNA expression of FASN and SCD upon ERK inhibition” value in test [1] (A549 and H1299 cells, SCH772984 at 125 ng/mL, FIG. 5A) is “suppression of FASN and SCD”.

With `CC(C)c1c(C(=O)Nc2ccccc2)c(-c2ccccc2)c(-c2ccc(F)cc2)n1CC[C@@H](O)C[C@@H](O)CC(=O)O` [atorvastatin], the “Patients with significant changes in di-phospho-MEK1” value in the test on MEK1 phospho-isoforms (day 1 vs after 8 days of treatment, FIG. 27) is “four of nine”. The “Patients with significant changes in tri-phospho-MEK1” value with MEK1 phospho-isoforms (day 1 vs after eight days of treatment, FIG. 26) is listed as “four of nine”. Moreover, the “Patients with significant changes in Mono-phospho-MEK1” value in the test on MEK1 phospho-isoforms (day 1 vs after eight days of treatment, FIG. 28) is on record as “one of nine”. Further, the Tumor burden entry with tumor burden (patient A) was “tumor burden decreased”; in the test on tumor burden (patient B), “no change in tumor burden”.

As to epigallocatechin-3-gallate [EGCG], on FASN, the FASN inhibitory potency entry is reported as “high micromolar”.
